{"source": "patent US20030064941A1", "about": "“Avermectin and praziquantel combination therapy” (priority 2001, published 2003)", "key": {"[1]": {"test_system": "Taenia taeniaeformis", "details": "cats, experimental immature infections; cited from earlier work"}, "[2]": {"assay": "physchem", "details": "30 °C, organic solvent or mixture, thermodynamic from solid, solubility (based on mean values)", "description": "(§2) To achieve this a series of solutions of varying IPA/DPGMME ratio were prepared. To help minimize any solubility issues, which could arise due to the presence of selamectin in a formulation, a constant amount of selamectin was added to each solution. After achieving saturated solubility in these solutions and following filtration to remove excess undissolved praziquantel, the level of praziquantel (and selamectin) in solution was determined by HPLC.\n(§3) A series of IPA/DPGMME mixtures were prepared in duplicate as outlined in Table 1. To these were added a fixed amount of selamectin to provide a constant concentration of 120 mg per ml, i.e., the maximum selamectin concentration found in Stronghold™. After preparation these solutions were placed at 30° C. and rolled continuously for 48 hours.\n(§4) Praziquantel was analysed using an gradient HPLC method modified from that developed for selamectin. […] This same method was also used to check on the selamectin content in these same solutions.\n(§5) The solubility of praziquantel and selamectin in the IPA/DPGMME solutions was calculated as both mg per g and mg per ml. The mass of a 1 ml solution taken for analysis was also measured so that an approximate density could be calculated."}, "[3]": {"details": "cats, 3× dosage levels (oral, subcutaneous, intramuscular) during reproduction; cited from earlier work"}, "[4]": {"test_system": "Taenia spp", "assay": "Topical co-formulation efficacy against natural tapeworm infections in cats (post mortem counts)", "assay_type": "in vivo", "details": "Trial \"B\", single topical dose, 30 days after treatment", "protocol": "(§1) […] Cats harbouring natural tapeworm infections were used, and randomized to treatment based on pre-trial infections. Animals were killed 30 days after treatment, and post mortem tapeworm counts were conducted."}, "[5]": {"test_system": "Dipylidium spp", "assay": "Topical co-formulation efficacy against natural tapeworm infections in cats (post mortem counts)", "assay_type": "in vivo", "details": "single topical dose, 30 days after treatment", "protocol": "as §1"}, "[6]": {"details": "for Concentration (mg per g) / Concentration (mg per ml): selamectin added at 120 mg per ml, 30° C.", "description": "as §2, §3, §4, §5"}, "[7]": {"details": "praziquantel 0.5 mg/kg, alone or with selamectin 8 mg/kg"}, "[8]": {"details": "selamectin 8 mg/kg and/or praziquantel 1 mg/kg"}, "[9]": {"details": "Trial \"A\", selamectin 8 mg/kg and/or praziquantel 1 mg/kg"}, "[10]": {"details": "Trial \"B\", praziquantel 0.5 mg/kg, alone or with selamectin 8 mg/kg"}, "[11]": {"details": "Trial \"B\", selamectin 8 mg/kg and/or praziquantel 1 mg/kg"}, "[12]": {"details": "solution 2A: IPA 75 / DPGMME 25 % V/V"}, "[13]": {"details": "solutions 1A/1B: IPA 100 / DPGMME 0 % V/V"}, "[14]": {"details": "solutions 3A/3B: IPA 50 / DPGMME 50 % V/V"}, "[15]": {"details": "solutions 4A/4B: IPA 25 / DPGMME 75 % V/V"}, "[16]": {"details": "solutions 5A/5B: IPA 0 / DPGMME 100 % V/V"}}, "note": "Values joined by “and” are separate entries in the source; they are usually repeats but may differ in a detail not shown here. Equal values may be shown once. Read-outs that look alike come from different tables or passages of the source."}
{"compound": "O=C(C1CCCCC1)N1CC(=O)N2CCc3ccccc3C2C1", "note": "(stereo not shown) [Praziquantel, 2-(cyclohexylcarbonyl)-1,2,3,6,7-11b-hexahydro-4H-pyraz-ino[2,1-a]isoquinolin-4-one]", "values": [{"measurement": "elimination of experimental T. taeniaeformis infections as young as seven (7) days", "setting": "[1]", "result": 100, "unit": "%"}, {"measurement": "solubility at 48 h", "setting": "[2]", "result": 67, "unit": "mg/mL"}, {"measurement": "effects on fertility, conception, fetal development or pregnancy", "setting": "[3]", "result": "lack of effects on fertility, conception, fetal development or pregnancy"}, {"measurement": "% Efficacy (Taenia)", "setting": "[4]; [7]", "result": 100, "unit": "%"}, {"measurement": "Mean Taenia post mortem count (n = 5 / gp)", "setting": "[4]; [7]", "result": 0}, {"measurement": "% Efficacy (Taenia)", "setting": "[4]; [8]", "result": 72, "unit": "%"}, {"measurement": "Mean Taenia post mortem count (n = 5 / gp)", "setting": "[4]; [8]", "result": 1.2}, {"measurement": "% Efficacy (Dipylidium)", "setting": "[5]; [9]", "result": 74, "unit": "%"}, {"measurement": "Mean Dipylidium post mortem count (n = 4 / gp)", "setting": "[5]; [9]", "result": 3.25}, {"measurement": "% Efficacy (Dipylidium)", "setting": "[5]; [10]", "result": 16, "unit": "%"}, {"measurement": "Mean Dipylidium post mortem count (n = 5 / gp)", "setting": "[5]; [10]", "result": 7.6}, {"measurement": "% Efficacy (Dipylidium)", "setting": "[5]; [11]", "result": 89, "unit": "%"}, {"measurement": "Mean Dipylidium post mortem count (n = 5 / gp)", "setting": "[5]; [11]", "result": 1}]}
{"compound": "CO[C@H]1C[C@H](O[C@@H]2/C(C)=C/C[C@@H]3C[C@@H](C[C@]4(CC[C@H](C)[C@@H](C5CCCCC5)O4)O3)OC(=O)[C@@H]3C=C(C)/C(=N/O)[C@H]4OC/C(=C\\C=C\\[C@@H]2C)[C@]43O)O[C@@H](C)[C@@H]1O", "note": "[Selamectin, 5-oximino-22,23-dihydro-25-cyclohexylayermectin B1]", "values": [{"measurement": "solubility as the IPA concentration reduces", "setting": "[6]; IPA/DPGMME solutions, all ratios", "result": "≥ 100", "unit": "mg/g"}, {"measurement": "Concentration (mg per g)", "setting": "[6]; [12]", "result": 118, "unit": "mg per g"}, {"measurement": "Concentration (mg per ml)", "setting": "[6]; [12]", "result": 103, "unit": "mg per ml"}, {"measurement": "Concentration (mg per g)", "setting": "[6]; [13]", "result": 123, "unit": "mg per g"}, {"measurement": "Concentration (mg per ml)", "setting": "[6]; [13]", "result": 103, "unit": "mg per ml"}, {"measurement": "Concentration (mg per g)", "setting": "[6]; [14]", "result": 113, "unit": "mg per g"}, {"measurement": "Concentration (mg per ml)", "setting": "[6]; [14]", "result": 103, "unit": "mg per ml"}, {"measurement": "Concentration (mg per g)", "setting": "[6]; [15]", "result": "113 mg per g and 108 mg per g"}, {"measurement": "Concentration (mg per ml)", "setting": "[6]; [15]", "result": "107 mg per ml and 103 mg per ml"}, {"measurement": "Concentration (mg per g)", "setting": "[6]; [16]", "result": "104 mg per g and 103 mg per g"}, {"measurement": "Concentration (mg per ml)", "setting": "[6]; [16]", "result": "103 mg per ml and 102 mg per ml"}, {"measurement": "Mean Taenia post mortem count (n = 5 / gp)", "setting": "[4]; [8]", "result": "No infection"}, {"measurement": "% Efficacy (Dipylidium)", "setting": "[5]; [9]", "result": 40, "unit": "%"}, {"measurement": "Mean Dipylidium post mortem count (n = 4 / gp)", "setting": "[5]; [9]", "result": 7.2}, {"measurement": "Mean Dipylidium post mortem count (n = 5 / gp)", "setting": "[5]; [11]", "result": "No infection"}]}
